Results on 5 compounds are retold here after ChEMBL document CHEMBL1201862, “PubChem BioAssay data set” (2004).

Test systems include 786-0; A498; A549; EKVX; HCT-116; HCT-15; HOP-62; HOP-92; K562; LOX IMVI; MCF7; MDA-MB-435; NCI-H226; NCI-H460; NCI-H522; OVCAR-5; SF-268; SF-295; SNB-75; UO-31.
Test in all cases: growth of human tumour cells (NCI), 48 h

The structures appear in SMILES notation.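 In this assay, cells in 96-well plates receive the compound at five concentrations for 48 hours. Endpoints are linearly interpolated between the surrounding concentrations. GI50: concentration for 50% inhibition of growth.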 Active and inactive are the calls of the source. Rule as the data show it: active = GI50 up to about 1.1 µM and inactive = higher.

In the case of `COc1cc(-c2[nH]ccc2Cl)oc1C1=C2N=C3C=C2C(C(C)C)C1CCCCCCCC3` (stereo not given), the GI50 in the assay with 786-0 was 0.449 µM (active); in the assay on A498, 2.16 µM (inactive); in the assay on A549 it was 0.912 µM (active); in the assay with EKVX, 0.944 µM (active); in the assay with HCT-116, 0.307 µM (active); in the assay with HCT-15 it was 0.678 µM. Besides, the GI50 in the assay with HOP-62 is 0.774 µM (active); in the assay on HOP-92 it was 1.69 µM (inactive); in the assay with K562 it was 0.403 µM (active); in the assay on LOX IMVI it was 0.167 µM (active); with MCF7, 0.603 µM (active); with MDA-MB-435, 0.401 µM (active). Also, the GI50 is 1.06 µM (active) in the assay with NCI-H226; 0.319 µM (active) in the assay with NCI-H460; 0.407 µM (active) with NCI-H522; 0.735 µM (active) in the assay with OVCAR-5; 1.08 µM (active) with SF-268; 1.15 µM (inactive) in the assay on SF-295. The GI50 in the assay on SNB-75 was 1.12 µM (inactive); in the assay on UO-31 it was 1.03 µM (active).
For `O=c1c(NO)c([N+](=O)[O-])cnn1-c1ccccc1`, the GI50 was 6.07 µM (inactive) with 786-0; 20.6 µM (inactive) with A498; 18.5 µM (inactive) with A549; 11.6 µM (inactive) in the assay with EKVX; 2.62 µM (inactive) in the assay with HCT-116; 4.78 µM with HCT-15. The GI50 is 8.83 µM (inactive) with HOP-62; 7.64 µM (inactive) in the assay on HOP-92; 0.908 µM (active) in the assay with K562; 1.79 µM (inactive) in the assay on LOX IMVI; 2.55 µM (inactive) in the assay on MCF7; 1.88 µM (inactive) with MDA-MB-435. Moreover, the GI50 in the assay with NCI-H226 is 7.87 µM (inactive); in the assay on NCI-H460, 4.88 µM (inactive); in the assay on NCI-H522, 1.97 µM (inactive); in the assay on OVCAR-5, 7.28 µM (inactive); with SF-268, 12.5 µM (inactive); in the assay with SF-295, 12.2 µM (inactive). Moreover, the results for the GI50 in the assay with SNB-75 and with UO-31 were 14.6 µM (inactive) and 5.27 µM (inactive), respectively.
Regarding `O=C(/C=C/c1c[nH]c2ccccc12)c1ccccc1O`, the GI50 in the assay on 786-0 is 12.5 µM (inactive); with A498, 15.1 µM (inactive); with A549, 10.5 µM (inactive); in the assay with EKVX, 5.97 µM (inactive); with HCT-116, 12.9 µM (inactive); in the assay with HCT-15, 9.89 µM. The GI50 with HOP-62 is 14.3 µM (inactive); in the assay with HOP-92, 4.68 µM (inactive); with K562, 5.32 µM (inactive); in the assay with LOX IMVI it was 5.08 µM (inactive); in the assay on MCF7, 3.1 µM (inactive); with MDA-MB-435 it was 4.88 µM (inactive). The GI50 in the assay on NCI-H226 was 16.7 µM (inactive); with NCI-H460, 13.2 µM (inactive); in the assay with NCI-H522 it was 7.64 µM (inactive); in the assay with OVCAR-5 it was 13.6 µM (inactive); with SF-268, 16.6 µM (inactive); in the assay with SF-295, 10.4 µM (inactive). In addition, the values for the GI50 in the assay with SNB-75 and in the assay with UO-31 were 11.6 µM (inactive) and 2.82 µM (inactive), respectively.
Turning to `COc1ccc(NC(=O)CC(=O)NNC(Sc2ccccc2)c2cc(/N=N/c3ccc(Br)cc3)ccc2O)cc1` (stereo not given), the GI50 in the assay on 786-0 was 6.73 µM (inactive); in the assay on A498, > 10 µM (inactive); in the assay with A549 it was > 10 µM (inactive); in the assay on EKVX, > 10 µM (inactive); in the assay on HCT-116, 4.81 µM (inactive); in the assay with HCT-15, over 10 µM. In addition, the GI50 with HOP-62, in the assay with HOP-92, in the assay on K562, in the assay with LOX IMVI, in the assay on MCF7 and in the assay with MDA-MB-435 was > 10 µM (inactive) throughout. In addition, the GI50 was 2.74 µM (inactive) in the assay with NCI-H226; > 10 µM (inactive) in the assay on NCI-H460; > 10 µM (inactive) in the assay with NCI-H522; > 10 µM (inactive) in the assay on OVCAR-5; > 10 µM (inactive) in the assay with SF-268; > 10 µM (inactive) in the assay with SF-295. The GI50 in the assay on SNB-75 was 5.52 µM (inactive); with UO-31, > 10 µM (inactive).
`O=[As](O)(O)c1ccc(Cc2ccc([As](=O)(O)O)cc2)cc1`: the GI50 was 0.356 µM (active) in the assay with 786-0; 2.12 µM (inactive) with A498; 1.81 µM (inactive) in the assay on A549; 1.13 µM (inactive) in the assay with EKVX; 0.895 µM (active) with HCT-116; 1.17 µM with HCT-15. The GI50 in the assay with HOP-62 was 1.31 µM (inactive); with HOP-92 it was 1.5 µM (inactive); in the assay on K562, 0.265 µM (active); in the assay on LOX IMVI, 0.336 µM (active); with MCF7, 0.284 µM (active); in the assay on MDA-MB-435, 0.577 µM (active). Further, the GI50 with NCI-H226 was 3.78 µM (inactive); in the assay on NCI-H460, 0.91 µM (active); in the assay with NCI-H522, 0.419 µM (active); in the assay with OVCAR-5, 2.34 µM (inactive); with SF-268 it was 0.434 µM (active); with SF-295 it was 2.78 µM (inactive). Besides, the GI50 with SNB-75 was 1.34 µM (inactive); in the assay with UO-31, 1.24 µM (inactive).
